In patent publication US9975854B2, “Benzomorphan analogs and use thereof” (Purdue Pharma L.P., priority 2014, dated 2018):
Like-named read-outs stand apart in the source and are kept apart here.

Molecular target: μ-opioid receptor (Homo sapiens (Human), UniProt P35372)
Assay: μ-opioid receptor [35S]GTPγS functional assay, HEK-293 or CHO cells
Type: biochemical
Settings: HEK-293 or CHO cells; for EC50: read-out: GTPγS μ EC50; for Emax: relative to DAMGO
Protocol: [^35S]GTPγS functional assays were conducted using freshly thawed μ-receptor membranes prepared in-house from a cell line expressing recombinant opioid receptor in a HEK-293, CHO or U-2 OS cell background, or purchased from a commercial source (Perkin Elmer, Shelton, Conn.; or DiscovRx, Fremont, Calif.). Assay reactions were prepared by sequentially adding the following reagents to binding buffer (100 mM NaCl, 10 mM MgCl2, 20 mM HEPES, pH 7.4) on ice (final concentrations indicated): membrane protein (0.026 mg/mL), saponin ([…]), GDP ([…]) and [^35S]GTPγS (0.20 nM; Perkin Elmer, Shelton, Conn.). The prepared membrane solution (190 μl/well) was transferred to 96-shallow well polypropylene plates containing 10 μl of 20× concentrated stock solutions of the agonist [D-Ala^2, N-methyl-Phe^4 Gly-ol^5]-enkephalin (DAMGO) prepared in dimethyl sulfoxide (DMSO). Plates were incubated for 30 min at about 25° C. with shaking. Reactions were terminated by rapid filtration onto 96-well Unifilter GF/B filter plates (Perkin Elmer, Shelton, Conn.) using a 96-well tissue harvester (Perkin Elmer, Shelton, Conn.) followed by three filtration washes with 200 μl of ice-cold wash buffer (10 mM NaH2PO4, 10 mM Na2HPO4, pH 7.4). Filter plates were subsequently dried at 50° C. for 2-3 hr. BetaScint scintillation cocktail (Perkin Elmer, Shelton, Conn.) was added (50 μl/well) and plates were counted using a Packard Top-Count for 1 min/well. Data were analyzed using the sigmoidal dose-response curve fitting functions in GraphPad PRISM v. 3.0, or an in-house function for non-linear, sigmoidal dose-response curve-fitting.
μ GTP EC50 is the concentration of a compound providing 50% of the maximal response for the compound at a μ-opioid receptor.
μ GTP Emax (%) is the maximal effect elicited by a compound relative to the effect elicited by DAMGO, a standard p agonist. Generally, the μ GTP Emax (%) value measures the efficacy of a compound to treat or prevent pain or other Conditions.
In TABLE 4, activity response of certain Compounds of the Invention to the μ- and κ-opioid receptors was determined as described above for functional assays using HEK-293 or CHO cells.

Row | SMILES | EC50 (bound given in uM) [µM] | Emax [%] | EC50 [µM]
1 | CN1CCC2(C)c3cc(O)ccc3C[C@@H]1C2NC(=O)Cc1ccccc1 (stereo in doubt) [Compound 29, N-((2R,6S,11S)-8-hydroxy-3,6-dimethyl-1,2,3,4,5,6-hexahydro-2,6-methanobenzo[d]azocin-11-yl)-2-phenylacetamide] | > 20 | 1 | –
2 | CN1CCC2(C)c3cc(O)ccc3C[C@@H]1C2NC(=O)Cc1ccsc1 (stereo in doubt) [Compound 31, N-((2R,6S,11S)-8-hydroxy-3,6-dimethyl-1,2,3,4,5,6-hexahydro-2,6-methanobenzo[d]azocin-11-yl)-2-(thiophen-3-yl)acetamide] | > 20 | 1 | –
3 | CN1CCC2(C)c3cc(O)ccc3C[C@@H]1C2NC(=O)/C=C/c1ccoc1 (stereo in doubt) [Compound 32, (E)-3-(furan-3-yl)-N-((2R,6S,11S)-8-hydroxy-3,6-dimethyl-1,2,3,4,5,6-hexahydro-2,6-methanobenzo[d]azocin-11-yl)acrylamide] | > 20 | 2.33 ± 0.88 | –
4 | CN1CCC2(C)c3cc(O)ccc3C[C@@H]1C2NC(=O)CCC(=O)Nc1ccc(F)cc1F (stereo in doubt) [Compound 34, N^1-(2,4-difluorophenyl)-N^4-((2R,6S,11S)-8-hydroxy-3,6-dimethyl-1,2,3,4,5,6-hexahydro-2,6-methanobenzo[d]azocin-11-yl)succinamide] | > 20 | 2.67 ± 0.33 | –
5 | CN(CC1CCN(S(=O)(=O)Cc2ccccc2)CC1)C1[C@H]2Cc3ccc(O)cc3C1(C)CCN2C (stereo in doubt) [Compound 58, (2R,6S,11S)-11-(((1-(benzylsulfonyl)piperidin-4-yl)methyl)(methyl)amino)-3,6-dimethyl-1,2,3,4,5,6-hexahydro-2,6-methanobenzo[d]azocin-8-ol] | – | 58 ± 7.55 | 0.0132 ± 0.00071
6 | CC(C)CS(=O)(=O)N1CCC(CN(C)C2[C@H]3Cc4ccc(O)cc4C2(C)CCN3C)CC1 (stereo in doubt) [Compound 59, (2R,6S,11S)-11-(((1-(isobutylsulfonyl)piperidin-4-yl)methyl)(methyl)amino)-3,6-dimethyl-1,2,3,4,5,6-hexahydro-2,6-methanobenzo[d]azocin-8-ol] | – | 27 ± 1.53 | 0.0528 ± 0.005
7 | CN(CC1CCN(S(=O)(=O)C2CCCC2)CC1)C1[C@H]2Cc3ccc(O)cc3C1(C)CCN2C (stereo in doubt) [Compound 60, (2R,6S,11S)-11-(((1-(cyclopentylsulfonyl)piperidin-4-yl)methyl)(methyl)amino)-3,6-dimethyl-1,2,3,4,5,6-hexahydro-2,6-methanobenzo[d]azocin-8-ol] | – | 22.3 ± 2.34 | 0.012 ± 0.00174
8 | CN1CCC2(C)c3cc(O)ccc3C[C@@H]1C2NS(=O)(=O)Cc1ccccc1 (stereo in doubt) [Compound 101, N-((2R,6S,11S)-8-hydroxy-3,6-dimethyl-1,2,3,4,5,6-hexahydro-2,6-methanobenzo[d]azocin-11-yl)-1-phenylmethanesulfonamide] | > 20 | 6 ± 4.06 | –
9 | CN1CCC2(C)c3cc(O)ccc3C[C@@H]1C2NS(=O)(=O)c1ccccc1 (stereo in doubt) [Compound 102, N-((2R,6S,11S)-8-hydroxy-3,6-dimethyl-1,2,3,4,5,6-hexahydro-2,6-methanobenzo[d]azocin-11-yl)benzenesulfonamide] | > 20 | -1 | –
10 | CN1CC[C@@]2(C)c3cc(O)ccc3C[C@@H]1[C@H]2NCCc1ccc(S(C)(=O)=O)cc1 [Compound 11, (2R,6S,11S)-3,6-dimethyl-11-((4-(methylsulfonyl)phenethyl)amino)-1,2,3,4,5,6-hexahydro-2,6-methanobenzo[d]azocin-8-ol] | – | 16.7 ± 0.33 | 0.0356 ± 0.0059
11 | CN1CC[C@@]2(C)c3cc(O)ccc3C[C@@H]1[C@H]2NCC1(O)CCCCC1 [Compound 13, (2R,6S,11S)-11-(((1-hydroxycyclohexyl)methyl)amino)-3,6-dimethyl-1,2,3,4,5,6-hexahydro-2,6-methano-benzo[d]azocin-8-ol] | – | 45.7 ± 1.76 | 1.07 ± 0.172
12 | CN1CC[C@@]2(C)c3cc(O)ccc3C[C@@H]1[C@@H]2NCC1(O)CCCCC1 [Compound 14, (2R,6S,11R)-11-(((1-hydroxycyclohexyl)methyl)amino)-3,6-dimethyl-1,2,3,4,5,6-hexahydro-2,6-methanobenzo[d]azocin-8-ol] | – | 15 ± 1.58 | 8.69 ± 2.27
13 | CN1CC[C@@]2(C)c3cc(O)ccc3C[C@@H]1[C@@H]2NCCOc1ccccc1 [Compound 15, (2R,6S,11R)-3,6-dimethyl-11-((2-phenoxyethyl)amino)-1,2,3,4,5,6-hexahydro-2,6-methanobenzo[d]azocin-8-ol] | – | 97.7 ± 1.76 | 0.124 ± 0.0204
14 | CN1CC[C@@]2(C)c3cc(O)ccc3C[C@@H]1[C@@H]2NCCC1CCCCC1 [Compound 16, (2R,6S,11R)-11-((2-cyclohexylethyl)amino)-3,6-dimethyl-1,2,3,4,5,6-hexahydro-2,6-methanobenzo[d]azocin-8-ol] | – | 77.3 ± 3.84 | 1.27 ± 0.0901
15 | CN1CC[C@@]2(C)c3cc(O)ccc3C[C@@H]1[C@H]2NCCC1CCCCC1 [Compound 17, (2R,6S,11 S)-11-((2-cyclohexylethyl)amino)-3,6-dimethyl-1,2,3,4,5,6-hexahydro-2,6-methanobenzo[d]azocin-8-ol] | – | 55.3 ± 4.1 | 0.0929 ± 0.00079
16 | CN1CC[C@@]2(C)c3cc(O)ccc3C[C@@H]1[C@@H]2NCCCCNC(=O)OC(C)(C)C [Compound 18, Tert-butyl (4-(((2R,6S,11R)-8-hydroxy-3,6-dimethyl-1,2,3,4,5,6-hexahydro-2,6-methanobenzo[d]azocin-11-yl)amino)butyl)carbamate] | – | 48.4 ± 3.28 | 0.124 ± 0.0183
17 | CN1CC[C@@]2(C)c3cc(O)ccc3C[C@@H]1[C@H]2NCCCCNC(=O)OC(C)(C)C [Compound 19, Tert-butyl (4-(((2R,6S,11S)-8-hydroxy-3,6-dimethyl-1,2,3,4,5,6-hexahydro-2,6-methanobenzo[d]azocin-11-yl)amino)butyl)carbamate] | > 20 | 0 | –
18 | CN1CC[C@@]2(C)c3cc(O)ccc3C[C@@H]1[C@@H]2NC(=O)Nc1ccc(C#N)cc1 [Compound 27, 1-(4-Cyanophenyl)-3-((2R,6S,11R)-8-hydroxy-3,6-dimethyl-1,2,3,4,5,6-hexahydro-2,6-methanobenzo[d]azocin-11-yl)urea] | > 20 | 0 | –
19 | CN1CC[C@@]2(C)c3cc(O)ccc3C[C@@H]1[C@@H]2N(C)C(=O)Cc1ccc(S(C)(=O)=O)cc1 [Compound 28, N-((2R,6S,11R)-8-hydroxy-3,6-dimethyl-1,2,3,4,5,6-hexahydro-2,6-methanobenzo[d]azocin-11-yl)-N-methyl-2-(4-(methylsulfonyl)phenyl)acetamide] | – | 84.7 ± 1.2 | 0.182 ± 0.012
20 | CN1CC[C@@]2(C)c3cc(O)ccc3C[C@@H]1[C@@H]2NC(=O)CC(=O)Nc1ccc(F)cc1F [Compound 30, N^1-(2,4-difluorophenyl)-N^3—((2R,6S,11R)-8-hydroxy-3,6-dimethyl-1,2,3,4,5,6-hexahydro-2,6-methanobenzo[d]azocin-11-yl)malonamide] | > 20 | 2.67 ± 3.67 | –
21 | CN1CC[C@@]2(C)c3cc(O)ccc3C[C@@H]1[C@@H]2NC(=O)Cc1ccc(S(C)(=O)=O)cc1 [Compound 33, N-((2R,6S,11R)-8-hydroxy-3,6-dimethyl-1,2,3,4,5,6-hexahydro-2,6-methanobenzo[d]azocin-11-yl)-2-(4-(methylsulfonyl)phenyl)acetamide] | – | 13 | 5.28 ± 1.26
22 | CN1CC[C@@]2(C)c3cc(O)ccc3C[C@@H]1[C@H]2N(C)C(=O)Cc1ccc(S(C)(=O)=O)cc1 [Compound 35, N-((2R,6S,11S)-8-hydroxy-3,6-dimethyl-1,2,3,4,5,6-hexahydro-2,6-methanobenzo[d]azocin-11-yl)-N-methyl-2-(4-(methylsulfonyl)phenyl)acetamide] | > 20 | 2 ± 0.41 | –
23 | CN1CC[C@@]2(C)c3cc(O)ccc3C[C@@H]1[C@@H]2N(C)CC(=O)Nc1ccc(C(F)(F)F)cc1 [Compound 41, 2-(((2R,6S,11R)-8-hydroxy-3,6-dimethyl-1,2,3,4,5,6-hexahydro-2,6-methanobenzo[d]azocin-11-yl)(methyl)amino)-N-(4-(trifluoromethyl)phenyl)acetamide] | > 20 | 5.33 ± 1.45 | –
24 | COc1ccc2c(c1)[C@]1(C)CCN(C)[C@H](C2)[C@@H]1N(C)C(=O)CN1CCNC(=O)C1 [Compound 44, N-((2R,6S,11R)-8-methoxy-3,6-dimethyl-1,2,3,4,5,6-hexahydro-2,6-methanobenzo[d]azocin-11-yl)-N-methyl-2-(3-oxopiperazin-1-yl)acetamide] | > 20 | 43 ± 2.52 | –
